Experimental data: patent US7015248B2, “Use of abietic acid and derivatives thereof for inhibiting cancer” (Xiamen Ever-Health Bio-Tech. Co. Ltd, priority 2002, dated 2006)
Like-named read-outs stand apart in the source and are kept apart here.

Columns and labels:
[1] = tested on: Detroit 551 normal fibroblast cells; assay: DIC microscopy of cell morphology, Detroit 551 normal fibroblast cells; assay type: cell-based
Description: (§1) For evaluation of the biological activities of abietic acid on mammalian cells, a time-lapsed recording using video-enhanced DIC microscopy on a variety of cultured cells, including cancerous and non-cancerous cell lines, before and after addition of abietic acid, was performed.
(§2) Abietic acid may be extracted by any conventional methods. In one embodiment of the invention, abietic acid was extracted according to the method described in Luong J H et al., 1999, Electrophoresis. 20(7): 1546–54, and an abietic acid stock solution at a concentration of 150 μg/ml was prepared subsequently.
Detroit 551 normal fibroblast cells were treated without abietic acid or with abietic acid, as described above. The morphology of the normal fibroblast cells was affected when treated with 0.15 and 0.3 μg/ml abietic acid.
(§3) It has been known that the morphology of a cell reflects the healthy condition of the cell. For instance, once a cell, which is normally attached to a substrate with a flat morphology, swells and becomes round in morphology, it means that the condition of the cell turns disadvantageous and the cell may stop the growth and be dead soon.

[2] = MTT (mitochondrial activity) assay of cell proliferation; assay type: cell-based
Description: A MTT (mitochondrial activity) assay was used to determine a cell proliferation.

[3] = tested on: MCF-7 breast cancer cell line; assay: combination with taxol against MCF-7 cells; assay type: cell-based; conditions: in combination with taxol
[4] = tested on: prostaglandin E2; conditions: lipopolysaccharide-treated macrophages; Fernandez et al., 2001; cited from earlier work
[5] = tested on: HeLa cells, a human epithelioid cervical carcinoma cell line; assay: video-enhanced DIC microscopy of cell morphology, HeLa cells; assay type: cell-based
Description: as §1, §2
HeLa cells, a human epithelioid cervical carcinoma cell line, were cultured in a standard medium under standard conditions. The HeLa cells were trypsinized and a cell suspension at a concentration of 10^5 cells per milliliter of medium was prepared therefrom. The cell suspension was poured into a 22×22 mm coverglass and treated without abietic acid or with the abietic acid stock solution to achieve a final concentration of 0.3 μg/ml (1/500 dilution), 0.15 μg/ml (1/1000 dilution) or 0.03 μg/ml (1/5000 dilution), respectively.
as §3

[6] = tested on: breast cancer cells such as MCF-7 or T-47D; conditions: Mellanen et al., 1996; cited from earlier work
[7] = tested on: MCF-7 breast cancer cell line; assay type: in vivo; conditions: 0.02667 mg per gram body weight by gastric pipe per two days; for Average maximum diameter: 8 mice
Description: Eighty Balb/c-nu/nu female nude mice, supplied by National Laboratory Animal Center in the ROC (Taiwan), four-week old, weight about 18 to 20 g, free of pinworm infection, were housed in the laboratories of the National Yang-Ming University, Taipei, ROC (Taiwan). Clear water and feeds were normally provided. The litters were replaced with new ones per three days. On the other hand, a MCF-7 breast cancer cell line was cultured under standard conditions.
Since the nude mice were five weeks old, the nude mice were intramuscularly injected with 1.7 mg of estradiol valerate at their leg regions. On the other hand, the MCF-7 cells were treated with estradiol for 24 hours, and then trypsinized, centrifuged and recovered in the Minimum Essential Medium (MEM) medium to achieve a concentration of 2×10^7 cell/ml.
After two days following the intramuscular injection of estradiol valerate, the nude mice were subcutaneously injected with 500 μl of the estradiol-treated MCF-7 cells (2×10^7 cell/ml) at their back regions. Once injection, the back regions swelled but became even later.
After three weeks following the injection of the MCF-7 cells, a subcutaneous tumor of 2 mm in a maximum diameter was developed at the backs of the nude mice.
These tumor containing nude mice were divided into two groups, each including 8 mice. One of the two groups were fed normally as a control group. The mice of the other group were fed with abietic acid at a dosage of 0.02667 mg per gram of the body weight of the nude mice by a gastric pipe per two days for a period of more than 12 weeks (experimental group).
The maximum diameter of the tumor on the back of each nude mouse of the control group and the experimental group were recorded, as shown in Table 1 and FIG. 3.

[8] = tested on: Hep-G2 human hepatocellular carcinoma cell line; assay: combination with mitomycin C on Hep-G2 cells; assay type: cell-based; conditions: in combination with mitomycin C
[9] = tested on: plasma membrane of the cell; assay: electrophysiological experiments and dye-permeability assays; assay type: cell-based
Description: In addition, to further study the mechanisms underlying the swelling phenomenon of a cell, electrophysiological experiments and dye-permeability assays were conducted to measure the permeability of a plasma membrane of the cell.

[10] = target: lipoxygenase pathway; conditions: Ulusu et al., 2002; read-out: IC50 of inhibition of lipoxygenase pathway; cited from earlier work
[11] = tested on: HepG2 cells, a human heptocellular carcinoma cell line; assay: DIC microscopy of cell morphology, HepG2 cells; assay type: cell-based; conditions: for morphology of HepG2 cells: 24-hour incubation
Description: as §1, §2
HepG2 cells, a human heptocellular carcinoma cell line, were cultured in a standard medium under standard conditions. The HepG2 cells were trypsinized and a cell suspension at a concentration of 10^5 cells per milliliter of medium was prepared therefrom. The cell suspension was poured into a 22×22 mm coverglass and treated without abietic acid or with 0.3, 0.15 or 0.03 μg/ml abietic acid, respectively, as described above.
as §3

CC(C)C1=CC2=CC[C@@H]3[C@](C)(CCC[C@@]3(C)C(=O)O)[C@H]2CC1 [abietic acid]
morphology of normal fibroblast cells ([1]; 0.03 μg/ml): normal and flat morphology | morphology of normal fibroblast cells ([1]; 0.15 and 0.3 μg/ml): affected | concentration that affects the morphology of a normal fibroblast cell ([1]; Detroit 551): higher than 0.15 μg/ml | morphology and growth of normal fibroblast cells ([1]; about 24 hours exposure at the same concentration): remained flat in morphology and grew well | cell proliferation / mitosis ([2]; abietic acid by itself): inhibit cell mitosis in a dose-dependent manner | effect on killing effects of anti-cancer drugs ([2]; in combination with a variety of anti-cancer drugs): significantly enhanced the killing effects of a variety of anti-cancer drugs | effect on inhibitory activity of taxol [3]: enhance the inhibitory activity of taxol | production of prostaglandin E2 [4]: inhibit the production of the inflammatory mediator, prostaglandin E2 | morphology of HeLa cells ([5]; 0.03, 0.15 and 0.3 μg/ml, 24-hour incubation): serious swelling phenomenon | concentration effective to induce a swelling phenomenon ([5]; HeLa cell line): 0.03 µg/mL | growth of cancer cells after swelling ([5]; HeLa cells, about 24 hours exposure, relatively low concentration): inhibition of the growth and the death of the cancer cells | estrogenic effect [6]: estrogenic | average maximum diameter of the tumor in comparison with mice without treatment ([7]; 12 weeks): significantly reduced | survival of mice to the end of the period ([7]; more than 12 weeks): all the mice were alive | Average maximum diameter ([7]; week 1): 0.587 cm | Average maximum diameter ([7]; week 3): 0.675 cm | Average maximum diameter ([7]; week 6): 0.700 cm | Average maximum diameter ([7]; week 9): 0.787 cm | Average maximum diameter ([7]; week 12): 0.800 cm | effect on efficacy of mitomycin C on growth [8]: accelerate the efficacy of mitomycin C | permeability of a plasma membrane [9]: direct effect on influx and efflux of chemicals across the cell membrane | IC50 [10]: 29.5 ± 1.29 µM | morphology of HepG2 cells ([11]; 0.03 μg/ml): different morphology | morphology of HepG2 cells ([11]; 0.15 and 0.3 μg/ml): swelled | concentration effective to induce a swelling phenomenon ([11]; HepG2 cell line): 0.03 µg/mL | growth of cancer cells after swelling ([11]; HepG2 cells, about 24 hours exposure, relatively low concentration): inhibition of the growth and the death of the cancer cells
